Measurements published in patent publication US20250325542A1, “INHIBITORS OF ANTIMOCROBIAL RESISTANCE AND METHOS USING SAME” (Baylor College of Medicine, priority 2022, published 2025).
Entries after “also recorded” stand apart in the source; their conditions may differ. Where two headings read alike, the source gives them in different places. Blank lines part the entries; values can stand above or below the compound they belong to.

Key:
[1] = target: T1, KPC-2 (Klebsiella pneumoniae, UniProt Q9F663); assay: KPC-2 enzyme inhibition (Ki); type: biochemical
T1 sequence (Q9F663 whole entry, looked up, species assumed): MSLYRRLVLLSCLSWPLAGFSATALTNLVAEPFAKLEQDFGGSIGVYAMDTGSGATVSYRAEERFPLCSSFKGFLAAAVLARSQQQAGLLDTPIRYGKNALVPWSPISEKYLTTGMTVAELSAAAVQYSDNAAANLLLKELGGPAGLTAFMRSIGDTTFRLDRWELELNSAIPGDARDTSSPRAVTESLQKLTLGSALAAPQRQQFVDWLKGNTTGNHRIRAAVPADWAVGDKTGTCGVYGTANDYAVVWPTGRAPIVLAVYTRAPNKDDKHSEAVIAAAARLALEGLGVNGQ
Description: Several hits were identified from the qDOS38_1 library against the KPC-2 enzyme. All compounds were synthesized without linker C1a. Among the hit compounds, CDD-2312 had the highest enrichment score of 5.9 but a lower count number of 115 compared to other libraries screened at the same time.

[2] = target: T1, KPC-2; assay: DNA-encoded library affinity selection against KPC-2; type: binding; settings: qDOS38_1 library, on-DNA
[3] = test system: E. coli NDM-1/XL-1B; assay: Accumulation assay in bacteria (LC-MS); type: cell-based; settings: 50 μM compound, 10 min at 37° C.; tetracycline positive, clindamycin negative control
Description: Briefly, the overnight culture of E. coli NDM-1/XL-1B was inoculated into fresh Luria Bertani (LB) broth (1:100 v/v) and incubated at 37° C. with shaking to an optical density (OD600) of 0.55-0.60. The bacteria were pelleted by centrifugation and washed with 1× phosphate-buffered saline (PBS) before being re-suspended in PBS (28 times concentrated). The colony-forming units (CFUs) were determined by a calibration curve. Re-suspended cells were aliquoted into 1.5 mL Eppendorf tubes and recovered at 37° C. for 5 min. The compounds and controls were added with a final concentration of 50 μM. The mixtures were incubated at 37° C. for 10 min and the OD600 values were recorded to note the growth changes. To collect the cell pellets, 800 μL bacteria-compound mixtures were layered onto 700 μL silicone oil (9:1 v/v, AR20/Sigma High Temperature, pre-cooled at −80° C.) and bacteria were pelleted through the silicone oil by centrifugation. Cell pellets were re-suspended in 200 μL H2O and lysed using three freeze-thaw cycles of 3 min in liquid nitrogen followed by 3 min in a 65° C. water bath. Supernatants were collected after centrifuging and the cell debris was re-suspended in 100 μL methanol. The mixtures from cell debris were then centrifuged, and the methanol supernatants were combined with the supernatants from the last step before LC-MS analysis.
Two NL of supernatant was injected into a Thermo TSQ Quantis MS coupled with a Thermo Vanish UHPLC for analysis. The Phenomenex Luna C18 column (1.0 mm×50 mm, 1.7 μm) was used for resolving tested compounds with the column temperature being kept constant at 40° C. […] The compound concentrations in the samples were calculated based on their corresponding standard curves. […]
This could be partially due to the low accumulation of compounds into the periplasm and/or due to modest in vitro inhibition potency (Ki). To discern between the possibilities, the accumulation of inhibitors into bacteria was quantified using mass spectrometry. Compounds were pre-incubated with E. coli inoculum before cells were washed, lysed, and analyzed via mass spectrometry. […]

[4] = test system: E. coli; assay: MIC of PBP-3 screening hits against E. coli; type: cell-based; settings: for MIC: Escherichia coli, inhibitor alone, read-out: E. coli minimum inhibitory concentration (MIC)
Description: (§1) Similarly to KPC-2 and NDM-1, PBP-3 was screened against the β-lactamase-focused library and several hits were identified from qDOS38_2 and qDOS38_4 (Table 7). Since PBP-3 is not a β-lactamase enzyme, the inhibition assay cannot be used to determine the biochemical potency of inhibitor against PBP-3. Instead, in vivo potency was determined directly against E. coli and A. baumanii. Since all bacteria express PBP-3 naturally, other modifications to wild-type bacteria were not necessary.
(§2) Unlike β-lactamase inhibitor MIC determinations, which measure the synergy between inhibitor and antibiotic, PBP-3 inhibitor MIC determination only measures a single dimension concentration gradient of the inhibitor.

[5] = test system: A. baumanii; assay: MIC of PBP-3 screening hits against A. baumanii; type: cell-based; settings: inhibitor alone
Description: as §1, §2

[6] = test system: E. coli expressing NDM-1; type: cell-based; settings: for synergy with imipenem: comparison of imipenem MIC shifts; for Imipenem MIC (μg/mL): Ins = insoluble
[7] = target: NDM-1 (Klebsiella pneumoniae, UniProt C7C422); type: biochemical
Sequence of NDM-1 (C7C422 whole entry, looked up, species assumed): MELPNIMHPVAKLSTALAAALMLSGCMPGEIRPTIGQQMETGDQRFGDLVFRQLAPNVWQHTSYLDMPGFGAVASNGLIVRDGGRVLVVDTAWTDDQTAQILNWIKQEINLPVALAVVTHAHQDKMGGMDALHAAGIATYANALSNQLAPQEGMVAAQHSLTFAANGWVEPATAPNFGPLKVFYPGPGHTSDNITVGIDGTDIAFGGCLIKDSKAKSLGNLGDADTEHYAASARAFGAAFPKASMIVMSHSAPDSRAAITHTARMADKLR

[8] = Solubility observed in assay media; type: physicochemical

SMILES: COc1cc(-c2cnc(NCC(=O)O)nc2)cc(C=O)c1OCC(=O)N(C)C [CDD-2312, (5-(4-(2-(dimethylamino)-2-oxoethoxy)-3-formyl-5-methoxyphenyl)pyrimidin-2-yl)glycine]
Ki [1]: 657 ± 123 µM
enrichment score [2]: 5.9

SMILES: CNCc1cccc(NCc2ccc(-c3ccc(C(=O)O)c(O)c3)o2)c1 [CDD-2376, 2-hydroxy-4-(5-(((3-((methylamino)methyl)phenyl)amino)methyl)furan-2-yl)benzoic acid]
accumulation in bacteria [3]: lowest amount of accumulation; also recorded: lowest of all three compounds tested and comparable to that of the negative control

MIC [4]: 256 µg/mL
SMILES: Nc1cccc(NCc2ccc(-c3cncc(C(=O)O)c3)cc2)c1 [CDD-2396, 5-(4-(((3-aminophenyl)amino)methyl)phenyl)nicotinic acid]
effect against A. baumanii [5]: Neither of the compounds had any significant effect

growth of bacteria below the MIC ([4]; 16 μg/mL, E. coli): slower growth of bacteria
MIC [4]: 128 µg/mL
SMILES: NC(Cc1ccc(O)c(O)c1)C(=O)NCCc1ccccc1 (stereo not shown) [CDD-2507, 2-amino-3-(3,4-dihydroxyphenyl)-N-phenethylpropanamide]
effect against A. baumanii [5]: Neither of the compounds had any significant effect

SMILES: CNCc1cccc(NCc2ccc(-c3cccc(C(=O)O)c3O)o2)c1 [CDD-2522, 2-hydroxy-3-(5-(((3-((methylamino)methyl)phenyl)amino)methyl)furan-2-yl)benzoic acid]
synergy with imipenem [6]: reduced synergy compared to CDD-2376 and CDD-2511

SMILES: NCc1cccc(NCc2cccc(-c3ccc(C(=O)O)c(O)c3)c2)c1 [CDD-2616, 3′-(((3-(aminomethyl)phenyl)amino)methyl)-3-hydroxy-[1,1′-biphenyl]-4-carboxylic acid]
Ki [7]: 0.9 ± 0.44 µM
NDM-1 Ki (μM) [7]: sub-micromolar inhibition potency
accumulation in bacteria [3]: comparable to that of the positive control

SMILES: NCc1cccc(NCc2cccc(-c3ccc(C(=O)O)c(O)c3)n2)c1 [CDD-2653, 4-(6-(((3-(aminomethyl)phenyl)amino)methyl)pyridin-2-yl)-2-hydroxybenzoic acid]
accumulation in bacteria [3]: much higher

SMILES: NCc1cccc(NC(=O)c2cccc(-c3ccc(C(=O)O)c(O)c3)c2)c1 [CDD-2985, 3′-((3-(aminomethyl)phenyl)carbamoyl)-3-hydroxy-[1,1′-biphenyl]-4-carboxylic acid]
Ki [7]: 29 ± 15 µM
synergy with imipenem [6]: reduced synergy compared to CDD-2376 and CDD-2511

SMILES: Cc1cc(CNc2cccc(CN)c2)cc(-c2ccc(C(=O)O)c(O)c2)c1 [CDD-2997, 3′-(((3-(aminomethyl)phenyl)amino)methyl)-3-hydroxy-5′-methyl-[1,1′-biphenyl]-4-carboxylic acid]
Ki [7]: 0.53 ± 0.37 µM
Imipenem MIC (μg/mL) ([6]; [inhibitor] 64 μg/mL): Ins
Imipenem MIC (μg/mL) ([6]; [inhibitor] 128 μg/mL): Ins
solubility in aqueous solution ([8]; MIC medium, above 64 μg/mL): low solubility in aqueous solution
solubility in buffer ([8]; at the accumulation assay concentration (50 μM)): low solubility in buffer

SMILES: NCc1cccc(N2Cc3ccc(-c4ccc(C(=O)O)c(O)c4)cc3C2)c1 [CDD-3080, 4-(2-(3-(aminomethyl)phenyl)isoindolin-5-yl)-2-hydroxybenzoic acid]
Ki [7]: 43 ± 24 µM
synergy with imipenem [6]: reduced synergy compared to CDD-2376 and CDD-2511
